# In patent US20060069132A1, “Azolecarboxamide herbicides” (priority 2004, published 2006):
# How the values were obtained:
# Assay in all cases: Test E pre-/postemergence herbicide test
# pitted morningglory = type: in vivo, Ipomoea lacunosa
# Method in brief: (§1)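 Seeds were planted and treated preemergence with test chemicals in a non-phytotoxic solvent mixture containing surfactant; plants at 2 to 18 cm (1- to 4-leaf stage) received postemergence applications of the same formulation. After 12 to 14 days in a greenhouse, injury was visually rated against untreated controls on a 0 to 100 scale.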
# common mallow = type: in vivo, Malva sylvestris
# Method in brief: as §1
# Russian thistle = type: in vivo, Salsola kali
# Method in brief: as §1
# downy bromegrass = type: in vivo, Bromus tectorum
# Method in brief: as §1
# goosegrass = type: in vivo, Eleusine indica
# Method in brief: as §1
# purple nutsedge = type: in vivo, Cyperus rotundus
# Method in brief: as §1
# johnsongrass = type: in vivo, Sorghum halepense
# Method in brief: as §1
# annual bluegrass = type: in vivo, Poa annua
# Method in brief: as §1
# tropical spiderwort = type: in vivo, Commelina benghalensis
# Method in brief: as §1
# mustard = type: in vivo, Brassica nigra
# Method in brief: as §1
# [1] = Postemergence, 500 g ai/ha, scale 0 to 100
# [2] = Postemergence, 250 g ai/ha, scale 0 to 100
# [3] = Preemergence, 62 g ai/ha, scale 0 to 100
# [4] = Preemergence, 125 g ai/ha, scale 0 to 100
# [5] = Preemergence, 250 g ai/ha, scale 0 (no effect) to 100 (complete control)
# [6] = Preemergence, 500 g ai/ha, scale 0 (no effect) to 100 (complete control)
# [7] = postemergence, 125 g ai/ha, scale 0 to 100
# [8] = postemergence, 62 g ai/ha, scale 0 to 100
# [9] = Preemergence, 375 g ai/ha, scale 0 (no effect) to 100 (complete control)
structure (smiles),measurement,setting,value
"CCn1nc(C(C)(C)C)cc1C(=O)Nc1cccc(C(N)=O)n1 [Compound 162, 6-[[[3-(1,1-dimethylethyl)-1-ethyl-1H-pyrazol-5-yl]carbonyl]amino]-2-pyridinecarboxamide]","Plant response rating, Morningglory",pitted morningglory; [1],90
same,"Plant response rating, Morningglory",pitted morningglory; [2],80
same,"Plant response rating, Morningglory",pitted morningglory; [3],30
same,"Plant response rating, Morningglory",pitted morningglory; [4],60
same,"Plant response rating, Morningglory",pitted morningglory; [5],85
same,"Plant response rating, Morningglory",pitted morningglory; [6],100
same,"Plant response rating, Morningglory",pitted morningglory; [7],70
same,"Plant response rating, Morningglory",pitted morningglory; [8],30
same,"Plant response rating, Mallow",common mallow; [1],100
same,"Plant response rating, Mallow",common mallow; [2],80
same,"Plant response rating, Mallow",common mallow; [3],50
same,"Plant response rating, Mallow",common mallow; [4],70
same,"Plant response rating, Mallow",common mallow; [5],100
same,"Plant response rating, Mallow",common mallow; [6],100
same,"Plant response rating, Mallow",common mallow; [7],60
same,"Plant response rating, Mallow",common mallow; [8],40
same,"Plant response rating, Thistle",Russian thistle; [3],50
same,"Plant response rating, Thistle",Russian thistle; [4],50
same,"Plant response rating, Thistle",Russian thistle; [6],70
same,"Plant response rating, Bromegrass, Downy",downy bromegrass; [1],100
same,"Plant response rating, Bromegrass, Downy",downy bromegrass; [2],98
same,"Plant response rating, Bromegrass, Downy",downy bromegrass; [3],40
same,"Plant response rating, Bromegrass, Downy",downy bromegrass; [4],80
same,"Plant response rating, Bromegrass, Downy",downy bromegrass; [5],90
same,"Plant response rating, Bromegrass, Downy",downy bromegrass; [6],100
same,"Plant response rating, Bromegrass, Downy",downy bromegrass; [7],95
same,"Plant response rating, Bromegrass, Downy",downy bromegrass; [8],50
same,"Plant response rating, Goosegrass",goosegrass; [1],98
same,"Plant response rating, Goosegrass",goosegrass; [2],95
same,"Plant response rating, Goosegrass",goosegrass; [3],60
same,"Plant response rating, Goosegrass",goosegrass; [4],90
same,"Plant response rating, Goosegrass",goosegrass; [5],95
same,"Plant response rating, Goosegrass",goosegrass; [6],95
same,"Plant response rating, Goosegrass",goosegrass; [7],80
same,"Plant response rating, Goosegrass",goosegrass; [8],50
same,"Plant response rating, Nutsedge, Purple",purple nutsedge; [2],75
same,"Plant response rating, Nutsedge, Purple",purple nutsedge; [3],0
same,"Plant response rating, Johnsongrass",johnsongrass; [1],100
same,"Plant response rating, Johnsongrass",johnsongrass; [2],100
same,"Plant response rating, Johnsongrass",johnsongrass; [3],60
same,"Plant response rating, Johnsongrass",johnsongrass; [4],100
same,"Plant response rating, Johnsongrass",johnsongrass; [5],100
same,"Plant response rating, Johnsongrass",johnsongrass; [6],100
same,"Plant response rating, Johnsongrass",johnsongrass; [7],80
same,"Plant response rating, Johnsongrass",johnsongrass; [8],65
same,"Plant response rating, Bluegrass",annual bluegrass; [1],98
same,"Plant response rating, Bluegrass",annual bluegrass; [2],98
same,"Plant response rating, Bluegrass",annual bluegrass; [3],100
same,"Plant response rating, Bluegrass",annual bluegrass; [4],100
same,"Plant response rating, Bluegrass",annual bluegrass; [5],100
same,"Plant response rating, Bluegrass",annual bluegrass; [6],100
same,"Plant response rating, Bluegrass",annual bluegrass; [7],95
same,"Plant response rating, Bluegrass",annual bluegrass; [8],90
same,"Plant response rating, Spiderwort",tropical spiderwort; [1],65
same,"Plant response rating, Spiderwort",tropical spiderwort; [2],60
same,"Plant response rating, Spiderwort",tropical spiderwort; [3],20
same,"Plant response rating, Spiderwort",tropical spiderwort; [4],40
same,"Plant response rating, Spiderwort",tropical spiderwort; [5],75
same,"Plant response rating, Spiderwort",tropical spiderwort; [6],75
same,"Plant response rating, Spiderwort",tropical spiderwort; [7],10
same,"Plant response rating, Spiderwort",tropical spiderwort; [8],0
same,"Plant response rating, Black Mustard",mustard; [1],95
same,"Plant response rating, Black Mustard",mustard; [2],90
same,"Plant response rating, Black Mustard",mustard; [3],20
same,"Plant response rating, Black Mustard",mustard; [4],50
same,"Plant response rating, Black Mustard",mustard; [5],80
same,"Plant response rating, Black Mustard",mustard; [6],100
same,"Plant response rating, Black Mustard",mustard; [7],75
same,"Plant response rating, Black Mustard",mustard; [8],60
CCc1nn(C(C)(C)C)cc1C(=O)Nc1cc(C(=O)N(C)C)ccn1 [Compound 293],"Plant response rating, Morningglory",pitted morningglory; [4],10
same,"Plant response rating, Morningglory",pitted morningglory; [5],40
same,"Plant response rating, Morningglory",pitted morningglory; [9],50
same,"Plant response rating, Morningglory",pitted morningglory; [6],90
same,"Plant response rating, Mallow",common mallow; [4],40
same,"Plant response rating, Mallow",common mallow; [5],50
same,"Plant response rating, Mallow",common mallow; [9],80
same,"Plant response rating, Mallow",common mallow; [6],85
same,"Plant response rating, Thistle",Russian thistle; [4],60
same,"Plant response rating, Thistle",Russian thistle; [9],95
same,"Plant response rating, Thistle",Russian thistle; [6],100
same,"Plant response rating, Bromegrass, Downy",downy bromegrass; [5],80
same,"Plant response rating, Bromegrass, Downy",downy bromegrass; [6],80
same,"Plant response rating, Goosegrass",goosegrass; [4],90
same,"Plant response rating, Goosegrass",goosegrass; [5],90
same,"Plant response rating, Goosegrass",goosegrass; [9],95
same,"Plant response rating, Goosegrass",goosegrass; [6],100
same,"Plant response rating, Nutsedge, Purple",purple nutsedge; [5],40
same,"Plant response rating, Nutsedge, Purple",purple nutsedge; [9],50
same,"Plant response rating, Nutsedge, Purple",purple nutsedge; [6],60
same,"Plant response rating, Johnsongrass",johnsongrass; [4],10
same,"Plant response rating, Johnsongrass",johnsongrass; [5],60
same,"Plant response rating, Johnsongrass",johnsongrass; [9],70
same,"Plant response rating, Johnsongrass",johnsongrass; [6],85
same,"Plant response rating, Bluegrass",annual bluegrass; [4],95
same,"Plant response rating, Bluegrass",annual bluegrass; [5],95
same,"Plant response rating, Bluegrass",annual bluegrass; [9],95
same,"Plant response rating, Bluegrass",annual bluegrass; [6],100
same,"Plant response rating, Spiderwort",tropical spiderwort; [4],60
same,"Plant response rating, Spiderwort",tropical spiderwort; [5],80
same,"Plant response rating, Spiderwort",tropical spiderwort; [9],80
same,"Plant response rating, Spiderwort",tropical spiderwort; [6],90
same,"Plant response rating, Black Mustard",mustard; [4],95
same,"Plant response rating, Black Mustard",mustard; [5],100
same,"Plant response rating, Black Mustard",mustard; [9],100
same,"Plant response rating, Black Mustard",mustard; [6],100
CCn1nc(C(C)(C)C)cc1C(=O)Nc1cc(C(=S)N(C)C)ccc1F [Compound 294],"Plant response rating, Morningglory",pitted morningglory; [1],20
same,"Plant response rating, Morningglory",pitted morningglory; [2],20
same,"Plant response rating, Morningglory",pitted morningglory; [4],10
same,"Plant response rating, Morningglory",pitted morningglory; [5],10
same,"Plant response rating, Morningglory",pitted morningglory; [9],40
same,"Plant response rating, Morningglory",pitted morningglory; [6],70
same,"Plant response rating, Morningglory",pitted morningglory; [7],10
same,"Plant response rating, Morningglory",pitted morningglory; [8],0
same,"Plant response rating, Mallow",common mallow; [1],100
same,"Plant response rating, Mallow",common mallow; [2],50
same,"Plant response rating, Mallow",common mallow; [4],40
same,"Plant response rating, Mallow",common mallow; [5],40
same,"Plant response rating, Mallow",common mallow; [6],80
same,"Plant response rating, Mallow",common mallow; [7],40
same,"Plant response rating, Mallow",common mallow; [8],20
same,"Plant response rating, Thistle",Russian thistle; [1],80
same,"Plant response rating, Thistle",Russian thistle; [2],80
same,"Plant response rating, Thistle",Russian thistle; [4],50
same,"Plant response rating, Thistle",Russian thistle; [9],100
same,"Plant response rating, Thistle",Russian thistle; [6],100
same,"Plant response rating, Bromegrass, Downy",downy bromegrass; [1],95
same,"Plant response rating, Bromegrass, Downy",downy bromegrass; [2],85
same,"Plant response rating, Bromegrass, Downy",downy bromegrass; [4],80
same,"Plant response rating, Bromegrass, Downy",downy bromegrass; [5],100
same,"Plant response rating, Bromegrass, Downy",downy bromegrass; [9],100
same,"Plant response rating, Bromegrass, Downy",downy bromegrass; [6],100
same,"Plant response rating, Bromegrass, Downy",downy bromegrass; [7],75
same,"Plant response rating, Bromegrass, Downy",downy bromegrass; [8],60
same,"Plant response rating, Goosegrass",goosegrass; [1],85
same,"Plant response rating, Goosegrass",goosegrass; [2],80
same,"Plant response rating, Goosegrass",goosegrass; [4],95
same,"Plant response rating, Goosegrass",goosegrass; [5],95
same,"Plant response rating, Goosegrass",goosegrass; [9],100
same,"Plant response rating, Goosegrass",goosegrass; [6],100
same,"Plant response rating, Goosegrass",goosegrass; [7],60
same,"Plant response rating, Goosegrass",goosegrass; [8],50
same,"Plant response rating, Nutsedge, Purple",purple nutsedge; [1],90
same,"Plant response rating, Nutsedge, Purple",purple nutsedge; [2],80
same,"Plant response rating, Nutsedge, Purple",purple nutsedge; [4],80
same,"Plant response rating, Nutsedge, Purple",purple nutsedge; [5],80
same,"Plant response rating, Nutsedge, Purple",purple nutsedge; [9],80
same,"Plant response rating, Nutsedge, Purple",purple nutsedge; [6],90
same,"Plant response rating, Nutsedge, Purple",purple nutsedge; [7],70
same,"Plant response rating, Nutsedge, Purple",purple nutsedge; [8],50
same,"Plant response rating, Johnsongrass",johnsongrass; [1],90
same,"Plant response rating, Johnsongrass",johnsongrass; [2],80
same,"Plant response rating, Johnsongrass",johnsongrass; [4],30
same,"Plant response rating, Johnsongrass",johnsongrass; [5],75
same,"Plant response rating, Johnsongrass",johnsongrass; [9],85
same,"Plant response rating, Johnsongrass",johnsongrass; [6],85
same,"Plant response rating, Johnsongrass",johnsongrass; [7],70
same,"Plant response rating, Johnsongrass",johnsongrass; [8],40
same,"Plant response rating, Bluegrass",annual bluegrass; [1],95
same,"Plant response rating, Bluegrass",annual bluegrass; [2],95
same,"Plant response rating, Bluegrass",annual bluegrass; [4],95
same,"Plant response rating, Bluegrass",annual bluegrass; [5],95
same,"Plant response rating, Bluegrass",annual bluegrass; [9],95
same,"Plant response rating, Bluegrass",annual bluegrass; [6],100
same,"Plant response rating, Bluegrass",annual bluegrass; [7],95
same,"Plant response rating, Bluegrass",annual bluegrass; [8],95
same,"Plant response rating, Spiderwort",tropical spiderwort; [1],90
same,"Plant response rating, Spiderwort",tropical spiderwort; [2],70
same,"Plant response rating, Spiderwort",tropical spiderwort; [5],85
same,"Plant response rating, Spiderwort",tropical spiderwort; [9],90
same,"Plant response rating, Spiderwort",tropical spiderwort; [6],95
same,"Plant response rating, Spiderwort",tropical spiderwort; [7],30
same,"Plant response rating, Spiderwort",tropical spiderwort; [8],20
same,"Plant response rating, Black Mustard",mustard; [1],95
same,"Plant response rating, Black Mustard",mustard; [2],90
same,"Plant response rating, Black Mustard",mustard; [4],100
same,"Plant response rating, Black Mustard",mustard; [5],100
same,"Plant response rating, Black Mustard",mustard; [9],100
same,"Plant response rating, Black Mustard",mustard; [6],100
same,"Plant response rating, Black Mustard",mustard; [7],90
same,"Plant response rating, Black Mustard",mustard; [8],70
